The target in data set [1] is His-tagged recombinant human TrkA (cytoplasmic domain) (Homo sapiens (Human), UniProt P04629). As to the kind of experiment: TrkA Binding Assay (LanthaScreen Eu Kinase Binding Assay). The protocol:
The ability of a compound to bind to TrkA was measured by Invitrogen's LanthaScreen™ Eu Kinase Binding Assay. […] After a 60-minute incubation at 22° C., the reaction was measured using the EnVision via TR-FRET dual wavelength detection, and the POC was calculated from the emission ratio. The compound dose response data was fit to a 4-parameter logistic model and IC50 was defined as the concentration of compound at 50 POC.
(In general: Time-resolved FRET reads energy transfer from a long-lived donor to a nearby acceptor.)

For data set [2], the target named is histidine-tagged recombinant human TrkA, cytoplasmic domain (Homo sapiens (Human), UniProt P04629). Put plainly: TrkA ELISA Assay. Further: 2.5 nM TrkA. Format: biochemical. As to conditions: read-out: TrkA Elisa Enzyme Assay IC50. The protocol: An enzyme-linked immunosorbant assay (ELISA) was used to assess TrkA kinase activity in the presence of inhibitors. Immulon 4HBX 384-well microtiter plates (Thermo part #8755) were coated with a 0.025 mg/mL solution of poly (Glu, Ala, Tyr; 6:3:1; Sigma P3899). […] The assay buffer consisted of 25 mM MOPS pH 7.5, 0.005% (v/v) Triton X-100 and 5 mM MgCl2. The reaction mixture was removed from the plate by washing with PBS containing 0.1% (v/v) Tween 20. The phosphorylated reaction product was detected using 0.2 μg/mL of a phosphotyrosine specific monoclonal antibody (clone PY20) conjugated to horseradish peroxidase in conjunction with the TMB Peroxidase Substrate System (KPL). After the addition of 1M phosphoric acid, the chromogenic substrate color intensity was quantitated via absorbance at 450 nm. IC50 values were calculated using either a 4 or 5-parameter logistic curve fit.
Chain of histidine-tagged recombinant human TrkA, cytoplasmic domain (P04629 440-796): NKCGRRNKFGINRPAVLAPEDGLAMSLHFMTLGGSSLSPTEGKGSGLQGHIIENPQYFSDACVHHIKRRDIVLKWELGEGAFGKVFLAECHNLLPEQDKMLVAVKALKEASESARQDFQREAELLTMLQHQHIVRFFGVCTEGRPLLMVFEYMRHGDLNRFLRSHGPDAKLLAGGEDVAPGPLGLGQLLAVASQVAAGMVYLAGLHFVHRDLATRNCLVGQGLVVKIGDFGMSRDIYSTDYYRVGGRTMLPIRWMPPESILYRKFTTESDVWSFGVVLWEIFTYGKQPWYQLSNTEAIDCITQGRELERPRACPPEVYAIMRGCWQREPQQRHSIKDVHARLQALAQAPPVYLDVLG
Table 1 provides averaged IC50 values for compounds of the invention when tested in this assay.
For orientation: An ELISA detects its analyte on a solid surface through an enzyme-linked reagent.

The conditions of data set [3]: from O=C(OCCCl)c1cnn2ccc(N3CCC[C@@H]3c3cc(F)c[nH]c3=O)nc12; ether bond; 13-membered ring; Cs2CO3; DMF; 22.2 mM; 90.0 °C; 16.0 h.

Read-outs that look alike come from different tables or passages of the source.

Chain of His-tagged recombinant human TrkA (cytoplasmic domain) (P04629 440-796): as above

Where the note is “from CN(CCCCl)C(=O)c1cnn2ccc(N3CCC[C@@H]3c3cc(F)c[nH]c3=O)nc12, ether bond, Cs2CO3, DMF, 10.0 mM, 90.0 °C, 0.25 h”, `CN1CCCOc2ncc(F)cc2[C@H]2CCCN2c2ccn3ncc(c3n2)C1=O` [Example 18, (6R)-9-fluoro-17-methyl-13-oxa-2,11,17,21,22,25-hexaazapentacyclo[17.5.2.0^2,6.0^7,12.0^22,26]hexacosa-1(25),7,9,11,19(26),20,23-heptaen-18-one] yielded a ring closure, yield of all isomers of 36%. For the same compound, the IC50 in data set [1] and in data set [2] was 1 to 100 nM throughout.

`O=C1NCCOc2ncc(F)cc2[C@H]2CCCN2c2ccn3ncc1c3n2` [Example 9, (6R)-9-fluoro-13-oxa-2,11,16,20,21,24-hexaazapentacyclo[16.5.2.0^2,6.0^7,12.0^21,25]pentacosa-1(24),7,9,11,18(25),19,22-heptaen-17-one] gave a ring closure, yield of all isomers (from O=C(NCCCl)c1cnn2ccc(N3CCC[C@@H]3c3cc(F)c[nH]c3=O)nc12, ether bond, Cs2CO3, DMF, […], 85.0 °C, 0.5 h) of 24%. Also, the IC50 – broadly, the concentration at which inhibition is half-maximal – in data set [1] (averaged IC50 values, TR-FRET, 60-minute incubation at 22° C., 2% DMSO final) lay in the range of 1 to 100 nM; in data set [2] (averaged IC50 values, […] TrkA, 500 μM ATP, 25 minutes at ambient temperature) it was 1 to 100 nM.

Regarding `O=C1NC[C@H](O)COc2ccc(F)cc2[C@H]2C[C@@H](O)CN2c2ccn3ncc1c3n2` [Example 41, (4R,6R,15S)-9-fluoro-4,15-dihydroxy-13-oxa-2,17,21,22,25-pentaazapentacyclo [17.5.2.0^2,6.0^7,12.0^22,26]hexacosa-1(25),7(12),8,10,19(26),20,23-heptaen-18-one], under “from O=C(NC[C@H](O)CCl)c1cnn2ccc(N3C[C@H](O)CC3c3cc(F)ccc3O)nc12, ether bond, Cs2CO3, DMF, 21.6 mM, 85.0 °C, 0.5 h”, the ring closure, yield of all isomers amounted to 16.2%. Moreover, the IC50 in data set [1] fell in the range of 1 to 100 nM.

Turning to `O=C1NCCCOc2ccc(F)cc2[C@H]2CCCN2c2ccn3ncc1c3n2` [Example 20, (6R)-9-fluoro-13-oxa-2,17,21,22,25-pentaazapentacyclo[17.5.2.0^2,6.0^7,12.0^22,26]hexacosa-1(25),7,9,11,19(26),20,23-heptaen-18-one], the ring closure, yield of all isomers (from CCOC(=O)c1cnn2ccc(N3CCC[C@@H]3c3cc(F)ccc3OCCCN)nc12, amide bond, DIEA, EtOH, 230.0 mM, 200.0 °C) amounted to 50%. Further, the IC50 in data set [1] and in data set [2] was 1 to 100 nM in each case.

Compound `O=C1Nc2ncccc2COc2ncc(F)cc2[C@H]2CCCN2c2ccn3ncc1c3n2` [Example 39, (6R)-9-fluoro-13-oxa-2,11,19,21,25,26,29-heptaazahexacyclo [21.5.2.0^2,6.0^7,12.0^15,20.0^26,30]triaconta-1(29),7,9,11,15(20),16,18,23(30),24,27-decaen-22-one] yielded a ring closure, yield of all isomers (from O=C(Nc1ncccc1CCl)c1cnn2ccc(N3CCC[C@@H]3c3cc(F)cnc3O)nc12, ether bond, Cs2CO3, DMF, 84.8 mM, 60.0 °C, 4.0 h, 4 steps) of 2.2%. The concentration for half-maximal inhibition (IC50) in data set [1] was 1 to 100 nM.

In the case of `O=C1OCCOc2ncc(F)cc2[C@H]2CCCN2c2ccn3ncc1c3n2` [Example 14, (6R)-9-fluoro-13,16-dioxa-2,11,20,21,24-pentaazapentacyclo[16.5.2.0^2,6.0^7,12.0^21,25]pentacosa-1(24),7,9,11,18(25),19,22-heptaen-17-one], the ring closure, yield of all isomers (from O=C(OCCCl)c1cnn2ccc(N3CCC[C@@H]3c3cc(F)c[nH]c3=O)nc12, ether bond, Cs2CO3, DMF, 22.2 mM, 90.0 °C, 16.0 h) came out at 31%. Also, in data set [2], the IC50 was in the range of 1 to 100 nM.

For the compound `O=C1NC[C@@H](O)COc2ncc(F)cc2[C@H]2CCCN2c2ccn3ncc1c3n2` [Example 7, (6R,15R)-9-fluoro-15-hydroxy-13-oxa-2,11,17,21,22,25-hexaazapentacyclo-[17.5.2.0^2,6.0^7,12.0^22,26]hexacosa-1(25),7,9,11,19(26),20,23-heptaen-18-one], the ring closure, yield of all isomers (from O=C(NC[C@@H](O)CCl)c1cnn2ccc(N3CCC[C@@H]3c3cc(F)c[nH]c3=O)nc12, ether bond, Cs2CO3, DMF, 98.6 mM, 85.0 °C, 1.0 h) worked out at 40%. For the same compound, the IC50 in data set [1] and in data set [2] was 1 to 100 nM each time.

As to `O=C1NCCCc2ncc(F)cc2[C@H]2CCCN2c2ccn3ncc1c3n2` [Example 32, (6R)-9-fluoro-2,11,16,20,21,24-hexaazapentacyclo[16.5.2.0^2,6.0^7,12.0^21,25]pentacosa-1(24),7,9,11,18(25),19,22-heptaen-17-one], for the setting “from NCCCc1ncc(F)cc1[C@H]1CCCN1c1ccn2ncc(C(=O)O)c2n1, amide bond, HATU, DMF, 8.4 mM, 3.0 h”, the ring closure, yield of all isomers was determined as 39%. For the same compound, the IC50 in data set [1] is 1 to 100 nM.

`O=C1NOCCOc2ncc(F)cc2[C@H]2CCCN2c2ccn3ncc1c3n2` [Example 16, (6R)-9-fluoro-13,16-dioxa-2,11,17,21,22,25-hexaazapentacyclo [17.5.2.0^2,6.0^7,12.0^22,26]hexacosa-1(25),7,9,11,19(26),20,23-heptaen-18-one] showed a ring closure, yield of all isomers (from O=C(NOCCCl)c1cnn2ccc(N3CCC[C@@H]3c3cc(F)c[nH]c3=O)nc12, ether bond, Cs2CO3, DMF, 100.0 mM, 90.0 °C, […]) of 1%. Further, the IC50 in data set [1] and in data set [2] was 1 to 100 nM throughout.

Consider `O=C1NCCCOc2ncc(F)cc2[C@H]2COC(=O)N2c2ccn3ncc1c3n2` [Example 30, (6S)-9-fluoro-4,13-dioxa-2,11,17,21,22,25-hexaazapentacyclo [17.5.2.0^2,6.0^7,12.0^22,26]hexacosa-1(25),7(12),8,10,19(26),20,23-heptaene-3,18-dione], for which the ring closure, yield of all isomers (from O=C(NCCCCl)c1cnn2ccc(N3C(=O)OC[C@@H]3c3cc(F)c[nH]c3=O)nc12, ether bond, Cs2CO3, DMF, 26.7 mM, 65.0 °C, 48.5 h) worked out at 41%. Moreover, the IC50 in data set [2] lay within 1 to 100 nM.

For the setting “from O=C(NCCCCl)c1cnn2ccc(N3CCC[C@@H]3c3cc(F)cnc3O)nc12, ether bond, Cs2CO3, DMF, […], 85.0 °C, 16.0 h”, `O=C1NCCCOc2ncc(F)cc2[C@H]2CCCN2c2ccn3ncc1c3n2` [Example 3, (6R)-9-fluoro-13-oxa-2,11,17,21,22,25-hexaazapentacyclo[17.5.2.0^2,6.0^7,12.0^22,26]hexacosa-1(25),7,9,11,19(26),20,23-heptaen-18-one] returned a ring closure, yield of all isomers of 44%. Further, the IC50 in data set [1] and in data set [2] was 1 to 100 nM throughout.

Consider `O=C1NCCCCn2cc(F)cc(c2=O)[C@H]2CCCN2c2ccn3ncc1c3n2` [Example 11, (6R)-9-fluoro-2,11,16,20,21,24-hexaazapentacyclo[16.5.2.1^7,11.0^2,6.0^21,25]hexacosa-1(24),7,9,18(25),19,22-hexaene-17,26-dione], for which the IC50 in data set [1] and in data set [2] was 1 to 100 nM each time.

For the compound `O=C1NC[C@H](O)COc2ccc(F)cc2C2CC(F)(F)CN2c2ccn3ncc1c3n2` (stereo partly shown), the ring closure, yield of all isomers (from O=C(NC[C@H](O)CCl)c1cnn2ccc(N3CC(F)(F)CC3c3cc(F)ccc3O)nc12, ether bond, Cs2CO3, DMF, 20.0 mM, 85.0 °C, 0.5 h) stood at 44%.

As for `CC1(C)CCc2ncc(F)cc2[C@H]2CCCN2c2ccn3ncc(c3n2)C(=O)N1` [Example 37], the ring closure, yield of all isomers (from COC(=O)c1cnn2ccc(N3CCC[C@@H]3c3cc(F)cnc3CCC(C)(C)NC(=O)OC(C)(C)C)nc12, amide bond, EDCI/HOBt/Et3N, DMF, 39.4 mM, 45.0 °C, 18.0 h, 3 steps) came out at 48.3%. Moreover, the IC50 in data set [1] is 1 to 100 nM.

Take `O=C1NCCCOc2cccc(n2)[C@H]2CCCN2c2ccn3ncc1c3n2` [Example 2, (6R)-12-oxa-2,16,20,21,24,26-hexaazapentacyclo[16.5.2.1^7,11.0^2,6.0^21,25]hexacosa-1(24),7(26),8,10,18(25),19,22-heptaen-17-one]: the IC50 in data set [1] and in data set [2] was 1 to 100 nM each time.

As for `O=C1NC[C@@H](O)Cn2cc(F)cc(c2=O)[C@H]2CCCN2c2ccn3ncc1c3n2` [Example 8], the IC50 in data set [1] and in data set [2] was 1 to 100 nM throughout.

With `O=C1NCCOc2ncc(F)cc2[C@H]2COC(=O)N2c2ccn3ncc1c3n2` [Example 31, (6S)-9-fluoro-4,13-dioxa-2,11,16,20,21,24-hexaazapentacyclo [16.5.2.0^2,6.0^7,12.0^21,25]pentacosa-1(24),7(12),8,10,18(25),19,22-heptaene-3,17-dione], the IC50 in data set [1] and in data set [2] was 100 to 3000 nM throughout.

`O=C1OCCn2cc(F)cc(c2=O)[C@H]2CCCN2c2ccn3ncc1c3n2` [Example 15, (6R)-9-fluoro-14-oxa-2,11,18,19,22-pentaazapentacyclo[14.5.2.1^7,11.0^2,6.0^19,23]tetracosa-1(22),7,9,16(23), 17,20-hexaene-15,24-dione] came in with a ring closure, isolated yield in data set [3] of 22%. The IC50 in data set [2] was 100 to 3000 nM.

Regarding `O=C1NCC(F)(F)COc2ncc(F)cc2[C@H]2CCCN2c2ccn3ncc1c3n2` [Example 19, (6R)-9,15,15-trifluoro-13-oxa-2,11,17,21,22,25-hexaazapentacyclo[17.5.2.0^2,6.0^7,12.0^22,26]hexacosa-1(25),7,9,11,19(26),20,23-heptaen-18-one], the IC50 in data set [1] and in data set [2] was 1 to 100 nM in each case.

(Values after patent US9718822B2, “Macrocyclic compounds as Trk kinase inhibitors” (Array BioPharma, Inc., priority 2010, dated 2017).)
